Test results: BindingDB's records for doi:10.1016/j.bmcl.2003.09.092 (Virginia Commonwealth University, 2003)

Assay: Binding affinity for rat imidazoline receptor I-1 from crude P2 membranes

- Ki: 10 nM
SMILES: C(=C\c1ccccc1)/C1=NCCN1 [2-((E)-Styryl)-4,5-dihydro-1H-imidazole]
